# Reference: patent publication US20230257396A1, “MACROCYCLES AND THEIR USE” (BLOSSOMHILL THERAPEUTICS, INC., priority 2020, published 2023)
# Experiments:
# Assay in all cases: KINOMEscan kinase binding assay (Eurofins/DiscoveRx), % Ctrl
# Details in all cases: 1 μM
# [1] = target: T1, kinases (Homo sapiens, UniProt P00533, L858R)
# T1 construct: purchased Eurofins/DiscoveRx; host or cells: E. coli BL21-derived host (T7 phage display) for most kinases; HEK-293 for the rest
# Summary of the method: (§1)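 Read-out is qPCR of kinase eluted from ligand-coated streptavidin beads after 1 h room-temperature competition with test compound. Values are % Ctrl at the tested concentration, lower meaning tighter binding.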
# [2] = target: T2, kinases (Homo sapiens, UniProt P07949, M918T)
# T2 construct: purchased Eurofins/DiscoveRx; host or cells: E. coli BL21-derived host (T7 phage display) for most kinases; HEK-293 for the rest
# T2 sequence (P07949 29-1114 M918T): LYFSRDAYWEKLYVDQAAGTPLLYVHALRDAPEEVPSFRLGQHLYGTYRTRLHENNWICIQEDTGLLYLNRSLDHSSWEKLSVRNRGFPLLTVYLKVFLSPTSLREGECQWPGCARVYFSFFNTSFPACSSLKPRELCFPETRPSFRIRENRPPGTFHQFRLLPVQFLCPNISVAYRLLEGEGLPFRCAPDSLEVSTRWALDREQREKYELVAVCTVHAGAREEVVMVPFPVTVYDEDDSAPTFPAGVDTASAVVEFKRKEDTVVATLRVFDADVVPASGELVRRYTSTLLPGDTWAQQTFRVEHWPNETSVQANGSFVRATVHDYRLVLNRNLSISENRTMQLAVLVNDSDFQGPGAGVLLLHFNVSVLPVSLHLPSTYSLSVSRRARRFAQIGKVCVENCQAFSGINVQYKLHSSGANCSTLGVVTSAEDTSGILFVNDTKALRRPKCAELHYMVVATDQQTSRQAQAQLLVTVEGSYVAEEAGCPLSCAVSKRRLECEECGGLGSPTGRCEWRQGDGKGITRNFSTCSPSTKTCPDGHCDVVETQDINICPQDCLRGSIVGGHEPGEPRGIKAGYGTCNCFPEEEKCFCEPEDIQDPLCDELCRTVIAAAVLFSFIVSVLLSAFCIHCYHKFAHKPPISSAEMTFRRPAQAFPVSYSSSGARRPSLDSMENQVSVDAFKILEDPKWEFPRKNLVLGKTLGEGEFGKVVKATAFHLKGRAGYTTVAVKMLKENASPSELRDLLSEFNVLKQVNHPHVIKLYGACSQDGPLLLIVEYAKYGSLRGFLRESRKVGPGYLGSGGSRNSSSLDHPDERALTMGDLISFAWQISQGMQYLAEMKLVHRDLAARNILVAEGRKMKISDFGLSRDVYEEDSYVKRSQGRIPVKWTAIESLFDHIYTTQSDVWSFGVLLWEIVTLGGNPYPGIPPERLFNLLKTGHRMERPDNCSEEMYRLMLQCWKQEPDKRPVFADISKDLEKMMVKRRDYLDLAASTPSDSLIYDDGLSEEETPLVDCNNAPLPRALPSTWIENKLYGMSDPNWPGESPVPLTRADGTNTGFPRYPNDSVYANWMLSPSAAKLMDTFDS
# Summary of the method: as §1
# [3] = target: T3, kinases (Homo sapiens, UniProt P00519)
# T3 construct: purchased Eurofins/DiscoveRx; host or cells: E. coli BL21-derived host (T7 phage display) for most kinases; HEK-293 for the rest
# Summary of the method: as §1
# [4] = target: T4, kinases (Homo sapiens, UniProt P00533)
# T4 construct: purchased Eurofins/DiscoveRx; host or cells: E. coli BL21-derived host (T7 phage display) for most kinases; HEK-293 for the rest
# Summary of the method: as §1
# [5] = target: T5, kinases (Homo sapiens, UniProt P00533, L861Q)
# T5 construct: purchased Eurofins/DiscoveRx; host or cells: E. coli BL21-derived host (T7 phage display) for most kinases; HEK-293 for the rest
# Summary of the method: as §1
# [6] = target: T6, kinases (Homo sapiens, UniProt P00519, H396P)
# T6 construct: purchased Eurofins/DiscoveRx; host or cells: E. coli BL21-derived host (T7 phage display) for most kinases; HEK-293 for the rest
# Summary of the method: as §1
# [7] = target: T7, kinases (Homo sapiens, UniProt P00519, Y253F)
# T7 construct: purchased Eurofins/DiscoveRx; host or cells: E. coli BL21-derived host (T7 phage display) for most kinases; HEK-293 for the rest
# Summary of the method: as §1
# [8] = target: T8, kinases (Homo sapiens, UniProt P36888)
# T8 construct: purchased Eurofins/DiscoveRx; host or cells: E. coli BL21-derived host (T7 phage display) for most kinases; HEK-293 for the rest
# T8 sequence (P36888 27-993): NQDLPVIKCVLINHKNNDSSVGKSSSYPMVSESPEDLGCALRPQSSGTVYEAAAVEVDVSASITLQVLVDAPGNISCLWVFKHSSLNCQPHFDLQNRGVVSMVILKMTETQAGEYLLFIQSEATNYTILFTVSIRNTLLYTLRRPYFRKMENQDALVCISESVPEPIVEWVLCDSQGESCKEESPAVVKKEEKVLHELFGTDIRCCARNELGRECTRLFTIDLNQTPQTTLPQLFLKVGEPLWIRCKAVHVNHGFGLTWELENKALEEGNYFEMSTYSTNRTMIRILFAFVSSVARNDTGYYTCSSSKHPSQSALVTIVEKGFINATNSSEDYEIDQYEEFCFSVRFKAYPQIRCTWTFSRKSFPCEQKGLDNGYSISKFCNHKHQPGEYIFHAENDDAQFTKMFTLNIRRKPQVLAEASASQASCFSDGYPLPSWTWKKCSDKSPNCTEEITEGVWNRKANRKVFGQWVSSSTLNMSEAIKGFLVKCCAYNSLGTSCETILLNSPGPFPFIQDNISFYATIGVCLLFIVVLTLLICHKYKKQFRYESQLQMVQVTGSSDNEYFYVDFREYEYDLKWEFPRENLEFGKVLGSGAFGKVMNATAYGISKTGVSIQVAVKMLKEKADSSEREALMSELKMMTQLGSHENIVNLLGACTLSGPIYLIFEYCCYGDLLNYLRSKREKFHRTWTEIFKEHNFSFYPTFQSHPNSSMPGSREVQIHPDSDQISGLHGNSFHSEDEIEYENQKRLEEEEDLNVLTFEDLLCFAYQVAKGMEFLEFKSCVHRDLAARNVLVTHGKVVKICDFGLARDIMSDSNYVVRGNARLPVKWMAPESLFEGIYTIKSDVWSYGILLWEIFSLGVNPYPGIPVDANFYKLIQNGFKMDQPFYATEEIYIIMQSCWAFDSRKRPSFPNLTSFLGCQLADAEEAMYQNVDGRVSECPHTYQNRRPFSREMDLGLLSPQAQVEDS
# Summary of the method: as §1
# [9] = target: T9, kinases (Homo sapiens, UniProt P00519, F317I)
# T9 construct: purchased Eurofins/DiscoveRx; host or cells: E. coli BL21-derived host (T7 phage display) for most kinases; HEK-293 for the rest
# Summary of the method: as §1
# [10] = target: T10, kinases (Homo sapiens, UniProt P35916)
# T10 construct: purchased Eurofins/DiscoveRx; host or cells: E. coli BL21-derived host (T7 phage display) for most kinases; HEK-293 for the rest
# T10 sequence (P35916 25-1363): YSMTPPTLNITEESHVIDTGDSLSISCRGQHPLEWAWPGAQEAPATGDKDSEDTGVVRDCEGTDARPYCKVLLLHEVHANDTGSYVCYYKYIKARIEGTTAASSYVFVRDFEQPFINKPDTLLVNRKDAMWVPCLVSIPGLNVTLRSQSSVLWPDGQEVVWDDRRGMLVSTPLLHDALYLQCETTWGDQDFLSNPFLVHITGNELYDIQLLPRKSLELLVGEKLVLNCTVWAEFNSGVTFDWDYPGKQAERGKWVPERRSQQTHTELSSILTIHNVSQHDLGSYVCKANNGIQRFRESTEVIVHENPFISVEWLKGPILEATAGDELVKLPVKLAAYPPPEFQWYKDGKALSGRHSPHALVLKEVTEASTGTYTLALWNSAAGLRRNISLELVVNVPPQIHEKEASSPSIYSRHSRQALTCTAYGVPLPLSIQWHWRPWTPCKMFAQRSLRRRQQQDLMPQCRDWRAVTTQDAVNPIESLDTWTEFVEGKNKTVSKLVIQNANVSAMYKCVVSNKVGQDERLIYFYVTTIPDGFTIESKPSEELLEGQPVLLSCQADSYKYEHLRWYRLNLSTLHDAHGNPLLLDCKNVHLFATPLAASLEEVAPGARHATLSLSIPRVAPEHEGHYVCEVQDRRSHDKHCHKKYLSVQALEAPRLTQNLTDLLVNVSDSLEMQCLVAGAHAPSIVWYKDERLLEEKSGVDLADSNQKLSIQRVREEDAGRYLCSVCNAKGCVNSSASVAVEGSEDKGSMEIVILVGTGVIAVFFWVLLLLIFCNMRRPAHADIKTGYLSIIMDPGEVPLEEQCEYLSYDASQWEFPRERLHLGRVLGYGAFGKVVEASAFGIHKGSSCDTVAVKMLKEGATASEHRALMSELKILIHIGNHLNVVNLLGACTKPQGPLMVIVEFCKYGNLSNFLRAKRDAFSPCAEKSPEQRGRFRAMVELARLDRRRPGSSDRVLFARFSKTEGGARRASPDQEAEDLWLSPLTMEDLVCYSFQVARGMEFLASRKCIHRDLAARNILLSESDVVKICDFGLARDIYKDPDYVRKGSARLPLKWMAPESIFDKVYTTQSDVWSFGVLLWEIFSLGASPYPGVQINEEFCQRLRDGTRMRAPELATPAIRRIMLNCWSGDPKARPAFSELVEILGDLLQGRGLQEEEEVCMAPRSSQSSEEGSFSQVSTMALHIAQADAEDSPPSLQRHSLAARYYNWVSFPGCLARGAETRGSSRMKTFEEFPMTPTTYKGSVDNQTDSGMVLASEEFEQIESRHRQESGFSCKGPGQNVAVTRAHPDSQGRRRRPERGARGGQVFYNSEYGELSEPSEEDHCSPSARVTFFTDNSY
# Summary of the method: as §1
# [11] = target: T11, kinases (Homo sapiens, UniProt P07949, V804L)
# T11 construct: purchased Eurofins/DiscoveRx; host or cells: E. coli BL21-derived host (T7 phage display) for most kinases; HEK-293 for the rest
# T11 sequence (P07949 29-1114 V804L): as the sequence (P07949 29-1114 M918T) above, with V776L, T890M counted along it
# Summary of the method: as §1
# [12] = target: T12, kinases (Homo sapiens, UniProt P00533, L858R/T790M)
# T12 construct: purchased Eurofins/DiscoveRx; host or cells: E. coli BL21-derived host (T7 phage display) for most kinases; HEK-293 for the rest
# Summary of the method: as §1
# [13] = target: T13, kinases (Homo sapiens, UniProt P10721, L576P)
# T13 construct: purchased Eurofins/DiscoveRx; host or cells: E. coli BL21-derived host (T7 phage display) for most kinases; HEK-293 for the rest
# T13 sequence (P10721 26-976 L576P): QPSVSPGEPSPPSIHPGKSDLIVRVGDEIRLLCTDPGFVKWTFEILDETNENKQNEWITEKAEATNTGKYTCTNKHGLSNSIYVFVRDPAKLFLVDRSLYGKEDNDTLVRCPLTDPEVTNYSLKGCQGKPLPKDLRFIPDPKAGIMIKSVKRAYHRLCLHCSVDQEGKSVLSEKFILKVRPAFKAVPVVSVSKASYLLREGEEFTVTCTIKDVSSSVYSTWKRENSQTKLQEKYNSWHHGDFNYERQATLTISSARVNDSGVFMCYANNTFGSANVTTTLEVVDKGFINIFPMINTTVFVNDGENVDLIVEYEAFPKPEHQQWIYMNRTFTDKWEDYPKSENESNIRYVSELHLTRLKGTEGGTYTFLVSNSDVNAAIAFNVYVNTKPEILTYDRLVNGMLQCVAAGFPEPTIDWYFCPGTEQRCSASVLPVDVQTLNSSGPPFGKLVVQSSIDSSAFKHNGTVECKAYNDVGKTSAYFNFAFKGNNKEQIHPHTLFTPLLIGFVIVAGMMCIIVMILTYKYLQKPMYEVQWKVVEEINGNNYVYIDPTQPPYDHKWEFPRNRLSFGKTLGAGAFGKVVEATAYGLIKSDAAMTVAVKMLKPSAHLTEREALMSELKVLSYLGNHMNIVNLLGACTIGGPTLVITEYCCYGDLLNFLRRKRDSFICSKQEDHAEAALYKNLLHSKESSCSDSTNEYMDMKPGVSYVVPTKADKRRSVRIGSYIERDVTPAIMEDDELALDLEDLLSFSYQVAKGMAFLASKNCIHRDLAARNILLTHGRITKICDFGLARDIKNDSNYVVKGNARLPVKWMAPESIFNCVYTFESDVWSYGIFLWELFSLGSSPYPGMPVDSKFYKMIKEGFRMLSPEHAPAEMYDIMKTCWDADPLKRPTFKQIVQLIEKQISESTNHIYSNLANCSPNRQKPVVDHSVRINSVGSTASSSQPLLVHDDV
# Summary of the method: as §1
# [14] = target: T14, kinases (Homo sapiens, UniProt P10721, V559D/V654A)
# T14 construct: purchased Eurofins/DiscoveRx; host or cells: E. coli BL21-derived host (T7 phage display) for most kinases; HEK-293 for the rest
# T14 sequence (P10721 26-976 V559D/V654A): as the sequence (P10721 26-976 L576P) above, with V534D, P551L, V629A counted along it
# Summary of the method: as §1
# [15] = target: T15, kinases (Homo sapiens, UniProt P09619)
# T15 construct: purchased Eurofins/DiscoveRx; host or cells: E. coli BL21-derived host (T7 phage display) for most kinases; HEK-293 for the rest
# T15 sequence (P09619 33-1106): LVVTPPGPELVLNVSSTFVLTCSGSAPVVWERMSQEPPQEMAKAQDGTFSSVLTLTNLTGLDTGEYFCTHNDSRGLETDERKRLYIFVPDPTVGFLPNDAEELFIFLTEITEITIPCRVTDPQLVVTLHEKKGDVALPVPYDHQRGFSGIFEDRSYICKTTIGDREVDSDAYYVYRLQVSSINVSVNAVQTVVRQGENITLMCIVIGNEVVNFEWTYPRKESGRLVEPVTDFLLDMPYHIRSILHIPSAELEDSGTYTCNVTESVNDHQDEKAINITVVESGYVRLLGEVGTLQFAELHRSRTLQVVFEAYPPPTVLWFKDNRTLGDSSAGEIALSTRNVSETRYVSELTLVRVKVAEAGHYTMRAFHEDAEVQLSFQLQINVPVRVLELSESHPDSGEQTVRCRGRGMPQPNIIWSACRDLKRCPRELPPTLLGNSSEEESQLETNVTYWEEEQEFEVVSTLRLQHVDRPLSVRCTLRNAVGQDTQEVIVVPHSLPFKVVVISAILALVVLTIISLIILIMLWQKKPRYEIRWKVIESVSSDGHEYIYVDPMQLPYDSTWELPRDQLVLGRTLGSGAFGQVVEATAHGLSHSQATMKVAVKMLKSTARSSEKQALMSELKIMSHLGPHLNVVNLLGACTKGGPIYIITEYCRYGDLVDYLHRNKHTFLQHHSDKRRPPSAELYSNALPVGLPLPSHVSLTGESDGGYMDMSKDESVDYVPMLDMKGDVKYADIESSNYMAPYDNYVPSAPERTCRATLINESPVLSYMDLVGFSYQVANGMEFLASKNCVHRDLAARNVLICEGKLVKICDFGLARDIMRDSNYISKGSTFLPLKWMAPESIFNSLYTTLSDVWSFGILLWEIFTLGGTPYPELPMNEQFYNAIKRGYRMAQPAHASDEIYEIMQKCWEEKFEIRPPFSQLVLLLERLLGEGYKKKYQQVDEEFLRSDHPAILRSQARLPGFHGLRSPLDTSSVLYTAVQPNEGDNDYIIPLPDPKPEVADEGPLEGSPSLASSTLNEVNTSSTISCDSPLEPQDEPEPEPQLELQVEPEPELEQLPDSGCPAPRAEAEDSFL
# Summary of the method: as §1
"% Ctrl, EGFR(L858R) ([1]; EGFR(L858R)) [% Ctrl]","% Ctrl, RET(M918T) ([2]; RET(M918T)) [% Ctrl]","% Ctrl, ABL1-nonphosphorylated ([3]; ABL1-nonphosphorylated) [% Ctrl]","% Ctrl, ABL1-phosphorylated ([3]; ABL1-phosphorylated) [% Ctrl]","% Ctrl, EGFR ([4]; EGFR) [% Ctrl]","% Ctrl, EGFR(L861Q) ([5]; EGFR(L861Q)) [% Ctrl]","% Ctrl, ABL1(H396P)-nonphosphorylated ([6]; ABL1(H396P)-nonphosphorylated) [% Ctrl]","% Ctrl, ABL1(H396P)-phosphorylated ([6]; ABL1(H396P)-phosphorylated) [% Ctrl]","% Ctrl, ABL1(Y253F)-phosphorylated ([7]; ABL1(Y253F)-phosphorylated) [% Ctrl]","% Ctrl, FLT3 ([8]; FLT3) [% Ctrl]","% Ctrl, FLT3-autoinhibited ([8]; FLT3-autoinhibited) [% Ctrl]","% Ctrl, ABL1(F317I)-nonphosphorylated ([9]; ABL1(F317I)-nonphosphorylated) [% Ctrl]","% Ctrl, ABL1(F317I)-phosphorylated ([9]; ABL1(F317I)-phosphorylated) [% Ctrl]","% Ctrl, FLT4 ([10]; FLT4) [% Ctrl]","% Ctrl, RET(V804L) ([11]; RET(V804L)) [% Ctrl]","% Ctrl, EGFR(L858R, T790M) ([12]; EGFR(L858R, T790M)) [% Ctrl]","% Ctrl, KIT(L576P) ([13]; KIT(L576P)) [% Ctrl]","% Ctrl, KIT(V559D, V654A) ([14]; KIT(V559D, V654A)) [% Ctrl]","% Ctrl, PDGFRB ([15]; PDGFRB) [% Ctrl]",SMILES,other results
–,–,–,–,–,–,–,–,–,–,–,–,–,–,–,–,–,–,–,"Cc1cc2c([nH]1)/C=C1\C(=O)Nc3cnc(cc31)-c1cn[nH]c1CNCCN(C)C2=O [Ex. 55, [3a(4)Z]-6,9-dimethyl-9,10,11,12,13,14-hexahydro-17,1-(azenometheno)pyrazolo[4,3-m]dipyrrolo[3,2-f:3′,4′-i][1,4]diazacyclopentadecine-3,8(2,5H)-dione]","% Ctrl, EGFR(L858R) ([1]; target EGFR(L858R)): 88 % Ctrl; % Ctrl, RET(M918T) ([2]; target RET(M918T)): 0.6 % Ctrl; % Ctrl, ABL1-nonphosphorylated ([3]; target ABL1-nonphosphorylated): 10 % Ctrl; % Ctrl, ABL1-phosphorylated ([3]; target ABL1-phosphorylated): 6 % Ctrl; % Ctrl, EGFR ([4]; target EGFR): 59 % Ctrl; % Ctrl, EGFR(L861Q) ([5]; target EGFR(L861Q)): 58 % Ctrl; % Ctrl, ABL1(H396P)-nonphosphorylated ([6]; target ABL1(H396P)-nonphosphorylated): 0.8 % Ctrl; % Ctrl, ABL1(H396P)-phosphorylated ([6]; target ABL1(H396P)-phosphorylated): 3.6 % Ctrl; % Ctrl, ABL1(Y253F)-phosphorylated ([7]; target ABL1(Y253F)-phosphorylated): 3.1 % Ctrl; % Ctrl, FLT3-autoinhibited ([8]; target FLT3-autoinhibited): 10 % Ctrl; % Ctrl, FLT3 ([8]; target FLT3): 11 % Ctrl; % Ctrl, ABL1(F317I)-nonphosphorylated ([9]; target ABL1(F317I)-nonphosphorylated): 66 % Ctrl; % Ctrl, ABL1(F317I)-phosphorylated ([9]; target ABL1(F317I)-phosphorylated): 41 % Ctrl; % Ctrl, FLT4 ([10]; target FLT4): 31 % Ctrl; % Ctrl, RET(V804L) ([11]; target RET(V804L)): 0.3 % Ctrl; % Ctrl, EGFR(L858R, T790M) ([12]; target EGFR(L858R, T790M)): 35 % Ctrl; % Ctrl, KIT(L576P) ([13]; target KIT(L576P)): 17 % Ctrl; % Ctrl, KIT(V559D, V654A) ([14]; target KIT(V559D, V654A)): 22 % Ctrl; % Ctrl, PDGFRB ([15]; target PDGFRB): 10 % Ctrl"
58,0,0,0,50,81,0.5,0,0,0.15,0.35,0,1.5,0.15,0,1.7,4.2,7.7,0.35,"Cc1cc2c([nH]1)/C=C1\C(=O)Nc3ccc(cc31)-c1cnn(C)c1COCCN(C)C2=O [Ex. 124, [3a(4)Z]-6,9,14-trimethyl-10,11,13,14-tetrahydro-2H-1,17-(ethanediylidene)pyrazolo[4,3-m]dipyrrolo[3,2-f:3′,4′-i][1,4]oxazacyclopentadecine-3,8(5H,9H)-dione]",–
99,6.4,43,61,100,100,38,65,60,55,77,95,83,95,37,93,39,73,90,"Cc1cc2c([nH]1)/C=C1\C(=O)Nc3cc(Cl)c(cc31)OCCO[C@@H](C(=O)N(C)C)CN(C)C2=O [Ex. 137, [7R,16a(17)Z]-19-chloro-N,N,2,5-tetramethyl-4,16-dioxo-4,5,6,7,9,10,15,16-octahydro-1H-12,14-(ethanediylidene)dipyrrolo[3,2-i:3′,4′-l][1,4,7]dioxazacyclopentadecine-7-carboxamide]",–
